Reference: patent publication US9156877B2, “17-hydroxy-17-pentafluorethyl-estra-4,9(10)-dien-11-benzylidene derivatives, methods for the production thereof and use thereof for treating diseases” (Bayer Intellectual Property GmbH, priority 2009, dated 2015)
In brackets after ≈: the same amount, converted by molar mass.

Columns and labels:
[1] = Metabolic stability in rat liver microsomes; assay type: in vitro ADME; details: for Predicted clearance [l/h/kg] Rat: well-stirred model
How it was run: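 Liver microsomes (solution at 0.5 mg/ml protein before cofactor addition) with 1 μM compound (final) and an NADPH-generating system at 37 °C, 100 mM phosphate pH 7.4, were sampled at 6 time points (2-60 min), methanol-quenched and analysed by LC-MS/MS. Half-life gave intrinsic clearance, and Fmax assumed 100% absorption and purely microsomal first pass.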

[2] = molecular target: T1, human progesterone receptor B (Homo sapiens, UniProt P06401); test: Progesterone receptor-antagonistic action in stably transfected SK-N-MC cells with MMTV-LUC reporter (PR-B); assay type: cell-based; details: antagonistic potency against 0.1 nmol/l promegestone, 24 hours, luciferase
T1 construct: expressed in transfected cells; host or cells: SK-N-MC human neuroblastoma cells, stably transfected with pRChPR-B-neo and pMMTV-LUC
T1 sequence (P06401 1-933): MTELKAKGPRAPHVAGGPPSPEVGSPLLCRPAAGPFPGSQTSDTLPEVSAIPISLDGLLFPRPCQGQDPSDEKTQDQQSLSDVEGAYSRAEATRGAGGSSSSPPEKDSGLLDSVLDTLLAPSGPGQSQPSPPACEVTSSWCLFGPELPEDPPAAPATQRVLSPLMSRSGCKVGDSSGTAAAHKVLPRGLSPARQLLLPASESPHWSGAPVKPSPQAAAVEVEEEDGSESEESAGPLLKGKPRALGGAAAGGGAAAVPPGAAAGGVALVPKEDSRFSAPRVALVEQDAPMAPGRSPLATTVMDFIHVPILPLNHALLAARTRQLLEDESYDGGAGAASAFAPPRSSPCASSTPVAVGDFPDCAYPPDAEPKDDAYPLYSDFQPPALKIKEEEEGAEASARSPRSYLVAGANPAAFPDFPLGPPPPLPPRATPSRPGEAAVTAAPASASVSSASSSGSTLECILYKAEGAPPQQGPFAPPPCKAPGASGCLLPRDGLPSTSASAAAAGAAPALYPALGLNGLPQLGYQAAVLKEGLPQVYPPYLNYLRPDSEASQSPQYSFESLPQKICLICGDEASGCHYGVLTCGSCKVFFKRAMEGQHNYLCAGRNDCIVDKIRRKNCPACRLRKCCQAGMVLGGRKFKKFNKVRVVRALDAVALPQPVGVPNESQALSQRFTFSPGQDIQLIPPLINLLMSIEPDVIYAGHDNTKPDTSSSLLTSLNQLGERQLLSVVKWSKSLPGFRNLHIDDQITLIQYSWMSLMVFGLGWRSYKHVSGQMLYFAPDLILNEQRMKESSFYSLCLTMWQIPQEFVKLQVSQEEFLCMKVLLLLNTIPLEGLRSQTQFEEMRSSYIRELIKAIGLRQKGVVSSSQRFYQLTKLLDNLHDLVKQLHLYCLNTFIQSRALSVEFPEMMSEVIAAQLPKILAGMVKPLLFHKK
How it was run: (§1)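 SK-N-MC neuroblastoma cells stably expressing human PR-A or PR-B plus MMTV-LUC reporter, treated 24 h with test compound (0.01 nmol/l–[…]). Antagonist mode used co-treatment with 0.1 nmol/l promegestone; luciferase in lysates read as RLU, expressed as % efficacy and IC50/EC50.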

[3] = Solubility in aqueous medium at pH 7.4; assay type: physicochemical; details: for solubility (in words): aqueous medium under physiological conditions; for solubility: aqueous medium, pH 7.4, aqueous buffer
Text: In addition, some compounds have an unusually good solubility, for this active ingredient class, in aqueous medium under physiological conditions (Table 2).

[4] = molecular target: T2, human progesterone receptor A (Homo sapiens, UniProt P06401); test: Progesterone receptor-antagonistic action in stably transfected SK-N-MC cells with MMTV-LUC reporter (PR-A); assay type: cell-based; details: antagonistic potency against 0.1 nmol/l promegestone, 24 hours, luciferase
T2 construct: expressed in transfected cells; host or cells: SK-N-MC human neuroblastoma cells, stably transfected with pRChPR-A-neo and pMMTV-LUC
T2 sequence (P06401 1-769 isoform P06401-2): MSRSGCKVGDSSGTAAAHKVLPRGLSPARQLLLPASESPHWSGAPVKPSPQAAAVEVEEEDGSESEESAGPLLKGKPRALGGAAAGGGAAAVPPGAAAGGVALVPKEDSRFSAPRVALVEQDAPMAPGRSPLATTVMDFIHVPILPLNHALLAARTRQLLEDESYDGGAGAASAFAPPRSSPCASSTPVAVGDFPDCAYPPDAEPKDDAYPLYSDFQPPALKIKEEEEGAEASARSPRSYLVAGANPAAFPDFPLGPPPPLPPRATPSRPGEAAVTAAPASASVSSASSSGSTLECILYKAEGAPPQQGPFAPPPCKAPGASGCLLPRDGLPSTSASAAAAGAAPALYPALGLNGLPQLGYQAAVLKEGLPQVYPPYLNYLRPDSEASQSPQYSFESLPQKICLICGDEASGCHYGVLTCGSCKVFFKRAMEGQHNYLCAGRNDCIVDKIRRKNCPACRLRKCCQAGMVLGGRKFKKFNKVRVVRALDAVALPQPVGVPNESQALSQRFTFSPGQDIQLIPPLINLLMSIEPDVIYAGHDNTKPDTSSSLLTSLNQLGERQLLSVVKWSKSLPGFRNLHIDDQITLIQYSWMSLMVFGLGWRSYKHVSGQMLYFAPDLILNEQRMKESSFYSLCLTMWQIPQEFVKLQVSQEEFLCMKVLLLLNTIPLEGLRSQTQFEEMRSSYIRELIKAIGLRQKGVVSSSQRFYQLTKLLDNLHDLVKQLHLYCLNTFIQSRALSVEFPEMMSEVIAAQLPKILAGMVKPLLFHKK
How it was run: as §1

[5] = Metabolic stability in human liver microsomes; assay type: in vitro ADME; details: for Predicted clearance [l/h/kg] Human: 1 μM, well-stirred model
How it was run: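 Human liver microsomes (0.5 mg/ml protein) were incubated with compound at 1 μM final and an NADPH-generating system in 100 mM phosphate pH 7.4 at 37 °C. Six samples (2–60 min) were methanol-quenched and measured by LC-MS/MS. Degradation half-life gave intrinsic clearance; Fmax assumed 100% absorption and first pass equal to microsomal metabolism.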

pregnant rats = test: Abortion test on female rats; assay type: in vivo, rat; details: d5-d7 p.c., autopsy d9 p.c.
Description: Abortion Test on Female Rats
The action of progesterone and of the progesterone receptor is a fundamental precondition for successful pregnancy or gestation in mammals. The progesterone-antagonistic action of the inventive compounds was tested on pregnant rats (6 rats per group) on days 5 to 7 post coitum under conventional housing and feeding conditions.
After successful mating, the pregnant animals (presence of sperm in the vaginal smear on day 1 of pregnancy=d1 p.c.) were randomized and divided into the treatment group and the control group. The animals then each received subcutaneously or orally 0.15; 0.5; 1.5 or 5 mg/kg of the test compound or 1.0 ml/kg of vehicle (benzyl benzoate/castor oil: 1+4 [v/v]) daily from day 5 to day 7 (d5-d7 p.c.).
Autopsy was conducted on day 9 (d9 p.c.). As a characteristic of progesterone receptor-antagonistic action, the uterus was examined for the presence of nidation sites. Complete absence, or else the presence of pathological, haemorrhagic or otherwise abnormal nidation sites, on day 9 (d9 p.c.) was considered as abortion.

[6] = compared to the compounds of the invention; cited from earlier work
[7] = compared to the compounds of the invention; cited from earlier work; remark: listed apart in the source

Row | Predicted Fmax [%] (maximum oral bioavailability) Rat [1] | Predicted clearance [l/h/kg] Rat [1] [L/h/kg] | IC50 [2] [nM] | solubility (in words) [3] | solubility [3] [µg/mL] | IC50 [4] [nM] | Predicted Fmax [%] (maximum oral bioavailability) Human [5] | Predicted clearance [l/h/kg] Human [5] [L/h/kg] | SMILES | Abortion rate [%] (pregnant rats; daily dose 0.5 mg/kg p.o.) | Abortion rate [%] (pregnant rats; daily dose 1.5 mg/kg p.o.) | Abortion rate [%] (pregnant rats; daily dose 5.0 mg/kg p.o.) | water solubility (in words) [6] | in vivo half-life (in words) [7]
1 | 91 | 0.4 | 0.7 | improved | > 188 | 0.1 | 33 | 0.89 | C[C@]12C[C@H](c3ccc(/C=C/C=C/C(=O)O)cc3)C3=C4CCC(=O)C=C4CC[C@H]3[C@@H]1CC[C@@]2(O)C(F)(F)C(F)(F)F [Example 17, (2E,4E)-5-[4-((8S,11R,13S,14S,17S)-17-hydroxy-13-methyl-3-oxo-17-pentafluoroethyl-2,3,6,7,8,11,12,13,14,15,16,17-dodecahydro-1H-cyclopenta[a]phenanthren-11-yl)phenyl]penta-2,4-dienoic acid] | 0 | 16.7 | 100.0 | – | –
2 | 100 | 0.0 | 0.09 | improved | 102 (≈ 166 µM) | 0.08 | 94 | 0.08 | C[C@]12C[C@H](c3ccc(/C=C/c4ccc(C(=O)O)cc4)cc3)C3=C4CCC(=O)C=C4CC[C@H]3[C@@H]1CC[C@@]2(O)C(F)(F)C(F)(F)F [Example 29, 4-{(E)-2-[4-((8S,11R,13S,14S,17S)-17-hydroxy-13-methyl-3-oxo-17-pentafluoroethyl-2,3,6,7,8,11,12,13,14,15,16,17-dodecahydro-1H-cyclopenta[a]phenanthren-11-yl)phenyl]vinyl}benzoic acid] | 0 | 16.7 | 100.0 | – | –
3 | – | – | – | – | – | – | – | – | CC(=O)c1ccc(C2CC3(C)C(CCC3(O)C(F)(F)C(F)(F)F)C3CCC4=CC(=O)CCC4=C23)cc1 (stereo not drawn) [11-β-(4-acetylphenyl)-20,20,21,21,21-pentafluoro-17-hydroxynor-17-pregna-4,9-dien-3-one] | – | – | – | poor | relatively short
